Experiment [1] has as its system IL-23. In words: IL-23 gene expression in RA-patient synovial cells (RT-qPCR). It counts as cell-based, human. Particulars: 2 h. As for the experimental part:
Synovial fluid was freshly collected from 20 patients with rheumatoid arthritis (RA) by arthrocentesis. At two hours after treatment or not with 2,4-D, RA-patient synovial cells were directly lysed using TRIzol reagent (Invitrogen, USA) followed by RNA extraction according to the manufacturer's protocol. Finally, RNA was dissolved in 10 μL DEPC-treated water, quantified on a NanoDrop 2000 spectrophotometer (Thermo Scientific Inc., USA), and reverse-transcribed using the Super Script III First-Strand Synthesis System for RT-PCR kit (Thermo Scientific, USA) according to the manufacturer's protocol. PCR was performed in duplicate using SYBR Green qPCR master mix (Takara Biomedical Technology Co., Ltd, Dalian, China) on an ABI 7500 Real-Time PCR System (Thermo, USA). The cycling program was as follows: denaturation at 95° C. for 15 s, 40 cycles of 95° C. for 15 s and extension at 60° C. for 60 s, followed by melt curve generation. The ΔΔCT method was used to quantify relative mRNA levels as described in Example 1 above. The primer sequences specific for human IL-17 genes (hu-IL-17 Forward: 5′-[…]-3′; hu-IL-17 Reverse: 5′-GGCACTTTGCCTCCCAGAT-3′) (SEQ ID NOs 8 and 9, respectively) and IL-23 (see Example 1, above) were used.

In experiment [2] the test system is cell surface markers CD80, Ly6C, CD206, CXCR4, CCR2. The experiment in a line: Endometriosis mouse model, cell surface marker expression of peritoneal immune cells (flow cytometry). The format is in vivo. To be noted: 50 mg/kg/day, 5 times a week, 6 weeks. As for the experimental part:
Experimental design. Balb/C female mice (10 weeks old) were habituated for 3 days to take a jelly containing (group EDT+2,4D) or not (groups No EDT and EDT+Vehicle) the compound. Surgical implantation of endometrial tissue from syngenic female in peritoneum, was performed at day 0 for groups EDT+Vehicle and EDT+2,4D. […] The vehicle or treatment was then given 5 times a week (50 mg/kg/day) during 6 weeks. Mice were then sacrificed and the peritoneal inflammation was assessed. All the details of the protocol are depicted in FIG. 27. Cytokine measurement in cell-free peritoneal lavage. After mice were euthanized, 5 mL of PBS was injected into the peritoneal cavity and the diluted peritoneal fluid containing the cells was then retrieved. The cells were pelleted by centrifugation at 500×g 4° C. and the supernatant (cell-free peritoneal fluid) was frozen at −80° C. for subsequent cytokine concentration measurement by ELISA. Cytokine concentration was assessed by ELISA kit in the peritoneal fluid (ThermoFisher, Mouse IL-1β, IL6 and TNFalpha Uncoated ELISA). […] The optical density was read with the Clariostar Plus Microplate Reader (BMG LABTECH), through the Clario software. Concentrations were calculated from a standard curve according to the manufacturer's protocol. Phenotypic study of immune cells from the peritoneal cavity assessed by flow cytometry. The pelleted peritoneal cells were resuspended in PBS-2% FBS and counted. One million cells were stained with the following fluorophore-conjugated antibodies purchased from BioLegend: CD45 BV510, CD11b APC-Cy7, CD11c PE, F4/80 BV711, CD80 PE Cy5, CD206 AF647, Ly-6C, PE-Cy7, CCR2 BV786 et CXCR4 BV421, CD45R/B220 PE Texas-Red, CD3E FITC, NK1.1 BV605 and CD69 PerCP-Cy5.5, Zombie-UV. Cells were incubated 20 min in the dark at 4° C., washed with PBS-2% FBS, and were fixed with paraformaldehyde 4% in 5 mL round-bottom polystyrene tubes (Falcon™ 352054). Compensation was adjusted with Ultracomp beads (ThermoFisher). All the antibodies were diluted at 1/200. All data were collected on LSR Fortessa flow cytometer (BD Bioscience, USA) and analyzed with FlowJo software. Statistical analysis. Outlier values farther than 2 standard deviation from the mean were not taken into account. Kruskal Wallis non-parametric test followed by Dunn's multiple comparisons test were performed for cytokines, One-Way Anova with Tukey's multiple comparisons test for flow cytometry data. *p<0.05, **p<0.01, ***p<0.001.
Background: In flow cytometry, cells or beads pass a laser one at a time.

The test system of experiment [3] is IL-23. The experiment in a line: IL-23 protein in culture supernatant of RA-patient synovial cells. To be noted: increasing concentrations. The format is cell-based, human.
Experiment [4] deals with collagen induced arthritis (CIA) in DBA/1 mice. In words: Collagen induced arthritis (CIA) in DBA/1 mice, clinical score. The format is in vivo, mouse. Particulars: for decrease of mean clinical score compared with control group: as from day 5 post-treatment. From the text:
Induction of collagen induced arthritis (CIA) in DBA/1 mice treated with oral 2,4-D. Forty DBA/1 mice (8-12 weeks of age; 20 males and 20 females) were obtained from the Center for Experimental Animals in Beijing, China. The CIA model was established according to the standard Hooke Protocol (accessible at https://hookelabs.com/protocols/cialnduction_DBA1.html). Complete Freund's adjuvant (CFA) and incomplete Freund's adjuvant (IFA) were purchased from Hooke Laboratories. 35 days after immunization, the 40 immunized mice were distributed randomly into 4 groups (10 controls, 10 treated with 0.2 mg daily oral 2,4-D, 10 treated with 1 mg daily oral 2,4-D for 15 days). All animals were followed for an additional 15 days post-treatment.
CIA scoring. CIA is scored on a scale of 0 to 16 (0 to 4 for each paw, adding the scores for all 4 paws), using the following criteria:
Statistical analysis. Data are presented as the mean±SEM for the in vivo animal study. Statistical analysis was performed using Student's t-test (paired 2-sample testing).

Experiment [5] relates to TPA-induced psoriasis-like skin hyperplasia. The experiment in a line: TPA-induced psoriasis-like skin hyperplasia in BALB/c mice. It counts as in vivo, mouse. As for the experimental part:
Induction of TPA-induced psoriasis-like skin hyperplasia in mice treated with oral 2,4-D. Forty mice (BALB/c) were purchased from Guangdong Experimental Animal Center. All experiments were approved by the animal ethics committee of Guangzhou University of Chinese Medicine according to Chinese legislation on animal experiments. Mice (n=30) at 8 to 11 weeks of age received a daily topical dose of 15 μg TPA (Sigma) in 200 μl of acetone on the shaved back for day 1 and 4. This dose was empirically determined to cause the most optimal and reproducible skin inflammation in mice (data not shown). Control mice (n=10) were treated similarly with a control vehicle cream (Sigma). See FIG. 9 for an illustrative example of a mouse receiving topical TPA as compared to a control mouse receiving a control vehicle cream. Of the 30 mice that received topical TPA, 20 mice were treated orally with 0.2 mg (n=10) or 1 mg (n=10) 2,4-D daily until day 6. The remaining 10 untreated TPA mice served as a disease control. On day 7, dorsal skin was photographed and fixed in 10% formalin and stained with H&E (Haemotoxylin and Eosin). Epidermal thickness was quantified by Image J software.
Statistical analysis. Data are presented as the mean±SD for the in vivo animal study. Statistical analysis was performed using Student's t-test (paired 2-sample testing).

Structures are written as SMILES.

`COc1cc(O)c(OC)c(O)c1C(=O)/C=C/c1ccccc1` [2,4-D, 2′,4′-dihydroxy-3′,6′-dimethoxychalcone]: in the experiment on IL-23 [1] (1 μg/ml), the “decrease of IL-23 expression” value amounted to 8 fold. The “inhibition of IL-23 expression” value in the experiment with IL-23 [1] (5 μg/ml) was 65 fold. For the same compound, in experiment [2], the CCR2 result was “significantly reduced”, the CXCR4 result is “tended to decrease”, the Ly6C pro-inflammatory marker result is reported as “tended to decrease” and the “anti-inflammatory CD206 marker” value is listed as “did not reduce”. Also, the “concentration of IL-23 protein in the culture supernatant” value with IL-23 [3] is recorded as “significantly inhibited”. Further, the “decrease of mean clinical score compared with control group” value in experiment [4] (high dose 1 mg per day oral) is recorded as 2- to 7 fold. Moreover, the “suppression of CIA after withdrawal of treatment” value in experiment [4] (high dose, 15 days after withdrawal) is listed as “maintained”. The “decrease of mean clinical score compared with control group” value in experiment [4] (low dose 0.2 mg per day oral) is recorded as 2- to 3 fold. Further, in experiment [5] (0.2 mg daily oral), the “thickness of back skin compared with normal skin of control mice” value is listed as “significantly higher” and the “thickness of back skin hyperplasia compared with untreated mice” value was “significantly lower”. Also, in experiment [5] (1 mg daily oral), the “thickness of back skin compared with normal skin of control mice” value is reported as “similar” and the “thickness of back skin hyperplasia compared with untreated mice” value is on record as “significantly lower”. In experiment [5] (0.2 or 1 mg daily oral), the “dorsal skin compared to mice receiving TPA only” value is listed as “improved in a dose-dependent manner”.

These data come from patent US20240335395A1, “COMPOSITIONS AND METHODS FOR PREVENTING AND/OR TREATING DISEASE ASSOCIATED WITH IL-23 EXPRESSION” (ALLSPIM, priority 2021, published 2024).
